Here are results for 36 compounds from patent US8618138B2, “Indole amide derivatives and related compounds for use in the treatment of neurodegenerative diseases” (Katholieke Universiteit Leuven, K.U. Leuven R&D, priority 2009, dated 2013).

This assay concerns M17-TAU P301L cells. As to the kind of experiment: TAU cytotoxicity assay: LDH leakage of retinoic acid incubated M17-TAU P301L cells. The assay is classed as cell-based, human. To be noted: Homo sapiens, 168 h, reduction of LDH activity of retinoic acid incubated M17-TAU P301L cells, 7 days. From the text:
A TAU expression plasmid was constructed by sub-cloning the cDNA of human TAU-P301 L (encoding for TAU with proline 301 substituted by a leucine residue) into mammalian expression vector pcDNA3.1 resulting in plasmid pcDNA3.1-TAU P301L. Plasmids pcDNA3.1 and pcDNA3.1-TAU P301L were transfected to human neuroblastoma cells ([…]; ATCC No. CRL-2267) and independent clonal lines with the plasmids stably integrated into the genome were selected. […] Expression of the TAU P301L genes in the cell lines was confirmed by Western analysis.
In degenerated or dead cells lactate dehydrogenase (LDH) is leaked out of the cells into the extracellular environment due to a loss of plasma-membrane integrity. This principle was used to determine cytotoxicity by quantifying the level of leaked LDH into the growth medium.
The detailed method for determining TAU cytotoxicity was as follows: From appropriate precultures of M17-3.1 and M17-TAU(P301L) cells were seeded at 2500 cells/cm2 in Optimem Reduced Serum without phenol red (Gibco, Cat. 31985-047) supplemented with 1% fetal calf serum, 1 mM sodium pyruvate, 1× non-essential amino acids, 500 μg/ml G418 0.5× antibiotic/antimycotic. After 3 h of incubation at 37° C./5% CO2 1 volume of Optimem Reduced Serum (same as described above; except without fetal calf serum) supplemented with 2.5 μM retinoic acid (RA) was added. The cells were further incubated for 7 days. Subsequently, LDH activity was determined using Promega Cytotox 96 Non-Radioactive cytotoxicity assay, (Cat. G1780) according the supplier's instructions.
The M17-TAU P301L cell line made it possible to assess the ability of novel compounds to counteract TAU cytotoxicity. […] These measurements were used to calculate EC50 values of table 2.
Exemplary compounds of the present invention are shown in table 2, with their chemical name and their EC50 value (expressed in nM) as determined from example 196 in the Tau-induced toxicity experiment.
What is called EC50 is the concentration needed to bring the measured effect to its halfway point. Lower therefore signals a more potent agent. For the compound `O=C(NCCc1c[nH]c2ccc(Cl)cc12)C1CCN(c2cccc(F)c2)C1=O` (stereo not drawn) [Example D65, N-(2-(5-chloro-1H-indol-3-yl)ethyl)-1-(3-fluorophenyl)-2-oxopyrrolidine-3-carboxamide], the half-maximal effective concentration (EC50) was 321 nM. That is a sub-micromolar value.
In turn, `CCNCc1cc(C(=O)NCCc2c[nH]c3ccc(Cl)cc23)no1` [Example D66, N-(2-(5-chloro-1H-indol-3-yl)ethyl)-5-((ethylamino)methyl)isoxazole-3-carboxamide] returned an EC50 of 327 nM.
On to `O=C(NCCc1c[nH]c2ccc(Cl)cc12)c1csc(-c2ccccc2)n1` [Example D67, N-(2-(5-chloro-1H-indol-3-yl)ethyl)-2-phenylthiazole-4-carboxamide], for which the EC50 turned out to be 333 nM. This EC50 and that of the compound before are within 1.5-fold of each other.
The same measure for `O=C(NCCc1c[nH]c2ccc(Cl)cc12)c1cc(-c2ccc(Cl)cc2)oc1C(F)(F)F` [Example D68, N-(2-(5-chloro-1H-indol-3-yl)ethyl)-5-(4-chlorophenyl)-2-(trifluoromethyl)furan-3-carboxamide]: 337 nM.
In turn, `O=C(NCCc1c[nH]c2ccc(Cl)cc12)N1CCN(Cc2ccccc2)C1` [Example D69, 3-benzyl-N-(2-(5-chloro-1H-indol-3-yl)ethyl)imidazolidine-1-carboxamide] gave an EC50 of 357 nM. The EC50 values of the last two compounds are within 1.5-fold of each other.
`COc1ccc(N2CCC(C(=O)NCCc3c[nH]c4ccc(Cl)cc34)C2=O)cc1` (stereo not drawn) [Example D70, N-(2-(5-chloro-1H-indol-3-yl)ethyl)-1-(4-methoxyphenyl)-2-oxopyrrolidine-3-carboxamide] gave an EC50 of 408 nM.
`CC(C)c1ccc(N2CCC(C(=O)NCCc3c[nH]c4ccc(Cl)cc34)C2=O)cc1` (stereo not drawn) [Example D71, N-(2-(5-chloro-1H-indol-3-yl)ethyl)-1-(4-isopropylphenyl)-2-oxopyrrolidine-3-carboxamide]: the EC50 was determined as 413 nM.
Regarding `Cc1cc(C(=O)NCCc2c[nH]c3ccccc23)c(C)n1C1CC1` [Example D72, N-(2-(1H-indol-3-yl)ethyl)-1-cyclopropyl-2,5-dimethyl-1H-pyrrole-3-carboxamide], it took 453 nM to reach a half-maximal effect (EC50).
In turn, `Cc1nc(-c2cnccn2)sc1C(=O)NCCc1c[nH]c2ccc(Cl)cc12` [Example D73, N-(2-(5-chloro-1H-indol-3-yl)ethyl)-4-methyl-2-(pyrazin-2-yl)thiazole-5-carboxamide] yielded an EC50 of 515 nM.
The figure for `COc1ccc2c(CCNC(=O)c3cc(Cc4cccc(F)c4)on3)c[nH]c2c1` [Example D74, 5-(3-fluorobenzyl)-N-(2-(6-methoxy-1H-indol-3-yl)ethyl)isoxazole-3-carboxamide] is 534 nM; for `O=C(NCCc1c[nH]c2ccc(Cl)cc12)N1CCC(Cc2ccccc2)C1` (stereo not drawn) [Example D75, 3-benzyl-N-(2-(5-chloro-1H-indol-3-yl)ethyl)pyrrolidine-1-carboxamide] it is 534 nM; for `O=C(NCCc1c[nH]c2ccc(Cl)cc12)C1CCN(C2CCCCC2)C1=O` (stereo not drawn) [Example D76, N-(2-(5-chloro-1H-indol-3-yl)ethyl)-1-cyclohexyl-2-oxopyrrolidine-3-carboxamide] it is 571 nM.
For `O=C(NCCc1c[nH]c2ccc(Cl)cc12)c1nnc(C2CCCCC2)o1` [Example D77, N-(2-(5-chloro-1H-indol-3-yl)ethyl)-5-cyclohexyl-1,3,4-oxadiazole-2-carboxamide], the midpoint of the response, the EC50, lay at 595 nM.
The figure for `O=C(NCCc1c[nH]c2ccc(Cl)cc12)C1CCN(c2ccc(F)cc2)C1=O` (stereo not drawn) [Example D78, N-(2-(5-chloro-1H-indol-3-yl)ethyl)-1-(4-fluorophenyl)-2-oxopyrrolidine-3-carboxamide] is 691 nM; for `O=C(NCCc1c[nH]c2ccc(Cl)cc12)C1CCN(c2ccccc2F)C1=O` (stereo not drawn) [Example D79, N-(2-(5-chloro-1H-indol-3-yl)ethyl)-1-(2-fluorophenyl)-2-oxopyrrolidine-3-carboxamide] it is 857 nM; for `O=C(NCCc1c[nH]c2ccc(Cl)cc12)C1=N[C@@H](Cc2ccccc2)CO1` [Example D80, (S)-4-benzyl-N-(2-(5-chloro-1H-indol-3-yl)ethyl)-4,5-dihydrooxazole-2-carboxamide] it is 915 nM.
As to `O=C(NCCc1c[nH]c2ccc(Cl)cc12)C1=N[C@H](Cc2ccccc2)CO1` [Example D81, (R)-4-benzyl-N-(2-(5-chloro-1H-indol-3-yl)ethyl)-4,5-dihydrooxazole-2-carboxamide], the EC50 is 917 nM.
The figure for `CCc1cccc(N2CCC(C(=O)NCCc3c[nH]c4ccc(Cl)cc34)C2=O)c1` (stereo not drawn) [Example D82, N-(2-(5-chloro-1H-indol-3-yl)ethyl)-1-(3-ethylphenyl)-2-oxopyrrolidine-3-carboxamide] is 939 nM; for `O=C(NCCc1c[nH]c2ccc(Cl)cc12)C1=NC(c2ccccc2)CO1` (stereo not drawn) [Example D83, N-(2-(5-chloro-1H-indol-3-yl)ethyl)-4-phenyl-4,5-dihydrooxazole-2-carboxamide] it is 979 nM; for `COc1ccc2[nH]cc(CCNC(=O)c3c(-c4ccccc4)noc3C)c2c1` [Example D109, N-(2-(5-methoxy-1H-indol-3-yl)ethyl)-5-methyl-3-phenylisoxazole-4-carboxamide] it is 3110 nM.
The figure for `Cc1ccc(Nc2nc(C(=O)NCCc3c[nH]c4ccccc34)cs2)cc1` [Example D110, N-(2-(1H-indol-3-yl)ethyl)-2-(p-tolylamino)thiazole-4-carboxamide] is 274 nM; for `Cc1onc(-c2ccccc2)c1C(=O)NCCc1c[nH]c2ccc(Cl)cc12` [Example D111, N-(2-(5-chloro-1H-indol-3-yl)ethyl)-5-methyl-3-phenylisoxazole-4-carboxamide] it is 582 nM; for `Cc1ncoc1C(=O)NCCc1c[nH]c2ccc(Cl)cc12` [Example D112, N-(2-(5-chloro-1H-indol-3-yl)ethyl)-4-methyloxazole-5-carboxamide] it is 1250 nM.
In turn, `Cc1cc(C(=O)NCCc2c[nH]c3ccc(Cl)cc23)no1` [Example D114, N-(2-(5-chloro-1H-indol-3-yl)ethyl)-5-methylisoxazole-3-carboxamide] gave a half-maximal effective concentration (EC50) of 30 nM.
The same measure for `Cc1noc(-c2ccccc2)c1C(=O)NCCc1c[nH]c2ccc(Cl)cc12` [Example D115, N-(2-(5-chloro-1H-indol-3-yl)ethyl)-3-methyl-5-phenylisoxazole-4-carboxamide]: 269 nM; for `Cc1nc(C(=O)NCCc2c[nH]c3ccc(Cl)cc23)c(C)o1` [Example D116, N-(2-(5-chloro-1H-indol-3-yl)ethyl)-2,5-dimethyloxazole-4-carboxamide]: 306 nM; for `O=C(NCCc1c[nH]c2ccc(Cl)cc12)c1ccnn1-c1ccccc1` [Example D117, N-(2-(5-chloro-1H-indol-3-yl)ethyl)-1-phenyl-1H-pyrazole-5-carboxamide]: 979 nM.
Turning to `Cn1ccc(C(=O)NCCc2c[nH]c3ccc(Cl)cc23)n1` [Example D118, N-(2-(5-chloro-1H-indol-3-yl)ethyl)-1-methyl-1H-pyrazole-3-carboxamide], the midpoint of the response, the EC50, lay at 332 nM.
The figure for `Cn1nccc1C(=O)NCCc1c[nH]c2ccc(Cl)cc12` [Example D119, N-(2-(5-chloro-1H-indol-3-yl)ethyl)-1-methyl-1H-pyrazole-5-carboxamide] is 1030 nM; for `CC(C)(C)c1cc(C(=O)NCCc2c[nH]c3ccc(Cl)cc23)n(Cc2ccccc2)n1` [Example D120, 1-benzyl-3-tert-butyl-N-(2-(5-chloro-1H-indol-3-yl)ethyl)-1H-pyrazole-5-carboxamide] it is 868 nM; for `O=C(NCCc1c[nH]c2ccc(Cl)cc12)c1cc(CO)on1` [Example D121, N-(2-(5-chloro-1H-indol-3-yl)ethyl)-5-(hydroxymethyl)isoxazole-3-carboxamide] it is 105 nM.
For the compound `CCOCc1cc(C(=O)NCCc2c[nH]c3ccc(Cl)cc23)no1` [Example D123, N-(2-(5-chloro-1H-indol-3-yl)ethyl)-5-(ethoxymethyl)isoxazole-3-carboxamide], the concentration giving a half-maximal response (EC50) stood at 19 nM. Compared with the last compound, the EC50 is about 5.5-fold lower.
As to `CN(C)c1cc(C(=O)NCCc2c[nH]c3ccc(Cl)cc23)no1` [Example D124, N-(2-(5-chloro-1H-indol-3-yl)ethyl)-5-(dimethylamino)isoxazole-3-carboxamide], the EC50 was found to be 5290 nM. This EC50 is about 280-fold higher than that of the compound before.
In the case of `CCN(CC)Cc1cc(C(=O)NCCc2c[nH]c3ccc(Cl)cc23)no1` [Example D125, N-(2-(5-chloro-1H-indol-3-yl)ethyl)-5-((diethylamino)methyl)isoxazole-3-carboxamide], a half-maximal effect (EC50) was put at 347 nM.
The same measure for `O=C(CCc1c[nH]c2ccc(Cl)cc12)N1CCN(Cc2ccccc2)C1` [Example D126, 1-(3-benzylimidazolidin-1-yl)-3-(5-chloro-1H-indol-3-yl)propan-1-one]: 357 nM.
In turn, `O=C(NCCc1c[nH]c2ncc(Cl)cc12)c1cc(C(=O)c2cc(F)ccc2F)on1` [Example D127, N-(2-(5-chloro-1H-pyrrolo[2,3-b]pyridin-3-yl)ethyl)-5-(2,5-difluorobenzoyl)isoxazole-3-carboxamide] showed a concentration for a half-maximal effect (EC50) of 436 nM.
